In ChEMBL document CHEMBL3991601, “The target landscape of clinical kinase drugs” (Science, 2017) one finds Kd data, which are given here for 10 compounds.

Active and inactive are the calls of the source. Rule as the data show it, for most assays here: actives have a measured Kd and inactives only a lower limit.

Experiment [1] deals with Serine/threonine-protein kinase N2 (Homo sapiens, UniProt Q16513).
Experiment [2] deals with T1, Beta-adrenergic receptor kinase 1 (Homo sapiens, UniProt P25098).
T1 sequence (P25098 whole entry): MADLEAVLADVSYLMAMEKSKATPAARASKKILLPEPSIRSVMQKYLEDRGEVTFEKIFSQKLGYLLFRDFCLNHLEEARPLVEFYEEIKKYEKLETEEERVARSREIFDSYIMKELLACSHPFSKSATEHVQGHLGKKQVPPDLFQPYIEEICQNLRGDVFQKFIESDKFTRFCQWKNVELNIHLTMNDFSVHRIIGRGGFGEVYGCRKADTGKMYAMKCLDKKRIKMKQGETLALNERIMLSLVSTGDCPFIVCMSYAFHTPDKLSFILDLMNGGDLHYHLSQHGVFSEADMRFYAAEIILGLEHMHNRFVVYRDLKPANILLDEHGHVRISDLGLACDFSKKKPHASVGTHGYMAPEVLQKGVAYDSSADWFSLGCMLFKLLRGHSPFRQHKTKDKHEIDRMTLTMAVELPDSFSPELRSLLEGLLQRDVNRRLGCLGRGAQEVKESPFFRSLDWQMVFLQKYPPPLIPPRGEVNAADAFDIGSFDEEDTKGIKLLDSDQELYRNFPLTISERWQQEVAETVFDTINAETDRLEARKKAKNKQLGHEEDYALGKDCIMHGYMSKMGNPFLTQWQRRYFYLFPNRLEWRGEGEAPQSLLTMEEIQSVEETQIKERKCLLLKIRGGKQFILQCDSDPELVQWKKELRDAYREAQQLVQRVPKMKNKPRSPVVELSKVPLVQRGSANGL

The target of experiment [3] is T2, Serine/threonine-protein kinase 3 (Homo sapiens, UniProt Q13188).
T2 sequence (Q13188 whole entry): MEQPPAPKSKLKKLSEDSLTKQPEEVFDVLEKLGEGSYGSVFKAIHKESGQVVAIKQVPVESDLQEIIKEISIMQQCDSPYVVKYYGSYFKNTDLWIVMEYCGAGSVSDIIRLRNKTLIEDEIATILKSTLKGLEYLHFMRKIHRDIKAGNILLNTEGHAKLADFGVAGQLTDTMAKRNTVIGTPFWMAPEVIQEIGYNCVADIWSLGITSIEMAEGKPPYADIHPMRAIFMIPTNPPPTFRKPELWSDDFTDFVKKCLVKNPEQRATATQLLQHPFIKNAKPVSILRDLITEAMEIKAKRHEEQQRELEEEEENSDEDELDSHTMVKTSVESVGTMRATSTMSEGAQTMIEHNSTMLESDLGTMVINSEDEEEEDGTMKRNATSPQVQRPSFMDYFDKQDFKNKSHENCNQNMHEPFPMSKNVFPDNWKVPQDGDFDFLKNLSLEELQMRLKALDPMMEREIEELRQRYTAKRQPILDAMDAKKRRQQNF

Experiment [4] has as its target U5 small nuclear ribonucleoprotein 200 kDa helicase (Homo sapiens, UniProt O75643).
The target in experiment [5] is BMP-2-inducible protein kinase (Homo sapiens, UniProt Q9NSY1).
For experiment [6], the target named is Tyrosine-protein kinase Fer (Homo sapiens, UniProt P16591).
For experiment [7], the target named is T3, Peroxisomal acyl-coenzyme A oxidase 3 (Homo sapiens, UniProt O15254).
T3 sequence (O15254 whole entry): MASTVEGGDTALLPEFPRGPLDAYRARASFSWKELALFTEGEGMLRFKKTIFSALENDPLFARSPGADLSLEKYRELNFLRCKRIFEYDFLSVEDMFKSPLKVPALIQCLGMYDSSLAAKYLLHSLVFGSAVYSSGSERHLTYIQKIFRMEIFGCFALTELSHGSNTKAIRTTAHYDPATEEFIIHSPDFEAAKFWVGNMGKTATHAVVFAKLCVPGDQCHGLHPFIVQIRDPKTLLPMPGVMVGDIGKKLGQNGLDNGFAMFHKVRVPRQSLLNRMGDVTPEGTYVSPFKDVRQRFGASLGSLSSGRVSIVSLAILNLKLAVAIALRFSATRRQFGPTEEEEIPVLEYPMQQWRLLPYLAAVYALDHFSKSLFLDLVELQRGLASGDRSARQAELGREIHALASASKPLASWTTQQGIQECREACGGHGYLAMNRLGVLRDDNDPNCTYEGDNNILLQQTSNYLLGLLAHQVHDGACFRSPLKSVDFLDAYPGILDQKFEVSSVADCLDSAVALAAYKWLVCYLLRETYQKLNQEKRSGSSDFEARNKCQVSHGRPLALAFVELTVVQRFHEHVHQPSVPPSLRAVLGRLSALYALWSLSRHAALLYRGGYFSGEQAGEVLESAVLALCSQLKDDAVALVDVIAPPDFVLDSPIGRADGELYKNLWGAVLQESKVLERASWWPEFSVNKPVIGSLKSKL

For experiment [8], the target named is Tyrosine-protein kinase Lyn (Homo sapiens, UniProt P07948).
Experiment [9] has as its target Tyrosine-protein kinase SYK (Homo sapiens, UniProt P43405).
The target in experiment [10] is T4, ATP-dependent RNA helicase DDX1 (Homo sapiens, UniProt Q92499).
T4 sequence (Q92499 whole entry): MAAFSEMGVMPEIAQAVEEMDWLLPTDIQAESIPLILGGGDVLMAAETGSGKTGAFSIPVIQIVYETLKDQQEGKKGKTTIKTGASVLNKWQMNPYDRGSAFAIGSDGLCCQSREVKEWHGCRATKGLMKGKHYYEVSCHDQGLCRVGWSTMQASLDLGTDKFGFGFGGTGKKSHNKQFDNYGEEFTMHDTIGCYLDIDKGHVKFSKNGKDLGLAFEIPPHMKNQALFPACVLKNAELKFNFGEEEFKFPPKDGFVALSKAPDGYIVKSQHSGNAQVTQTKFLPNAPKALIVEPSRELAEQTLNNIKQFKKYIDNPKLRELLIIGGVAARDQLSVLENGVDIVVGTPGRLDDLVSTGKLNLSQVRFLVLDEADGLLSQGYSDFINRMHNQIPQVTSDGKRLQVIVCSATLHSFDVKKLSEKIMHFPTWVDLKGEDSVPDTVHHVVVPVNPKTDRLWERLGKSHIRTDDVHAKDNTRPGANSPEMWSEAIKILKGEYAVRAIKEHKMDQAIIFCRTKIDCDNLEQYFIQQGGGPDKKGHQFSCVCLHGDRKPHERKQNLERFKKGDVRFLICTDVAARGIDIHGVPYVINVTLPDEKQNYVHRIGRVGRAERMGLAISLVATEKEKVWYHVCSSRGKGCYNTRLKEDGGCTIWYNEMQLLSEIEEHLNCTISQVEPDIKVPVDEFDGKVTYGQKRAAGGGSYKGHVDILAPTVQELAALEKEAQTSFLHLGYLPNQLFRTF
Also: in the data inactive means no Kd found up to 30 µM.

Chain of BMP-2-inducible protein kinase (Q9NSY1 whole entry): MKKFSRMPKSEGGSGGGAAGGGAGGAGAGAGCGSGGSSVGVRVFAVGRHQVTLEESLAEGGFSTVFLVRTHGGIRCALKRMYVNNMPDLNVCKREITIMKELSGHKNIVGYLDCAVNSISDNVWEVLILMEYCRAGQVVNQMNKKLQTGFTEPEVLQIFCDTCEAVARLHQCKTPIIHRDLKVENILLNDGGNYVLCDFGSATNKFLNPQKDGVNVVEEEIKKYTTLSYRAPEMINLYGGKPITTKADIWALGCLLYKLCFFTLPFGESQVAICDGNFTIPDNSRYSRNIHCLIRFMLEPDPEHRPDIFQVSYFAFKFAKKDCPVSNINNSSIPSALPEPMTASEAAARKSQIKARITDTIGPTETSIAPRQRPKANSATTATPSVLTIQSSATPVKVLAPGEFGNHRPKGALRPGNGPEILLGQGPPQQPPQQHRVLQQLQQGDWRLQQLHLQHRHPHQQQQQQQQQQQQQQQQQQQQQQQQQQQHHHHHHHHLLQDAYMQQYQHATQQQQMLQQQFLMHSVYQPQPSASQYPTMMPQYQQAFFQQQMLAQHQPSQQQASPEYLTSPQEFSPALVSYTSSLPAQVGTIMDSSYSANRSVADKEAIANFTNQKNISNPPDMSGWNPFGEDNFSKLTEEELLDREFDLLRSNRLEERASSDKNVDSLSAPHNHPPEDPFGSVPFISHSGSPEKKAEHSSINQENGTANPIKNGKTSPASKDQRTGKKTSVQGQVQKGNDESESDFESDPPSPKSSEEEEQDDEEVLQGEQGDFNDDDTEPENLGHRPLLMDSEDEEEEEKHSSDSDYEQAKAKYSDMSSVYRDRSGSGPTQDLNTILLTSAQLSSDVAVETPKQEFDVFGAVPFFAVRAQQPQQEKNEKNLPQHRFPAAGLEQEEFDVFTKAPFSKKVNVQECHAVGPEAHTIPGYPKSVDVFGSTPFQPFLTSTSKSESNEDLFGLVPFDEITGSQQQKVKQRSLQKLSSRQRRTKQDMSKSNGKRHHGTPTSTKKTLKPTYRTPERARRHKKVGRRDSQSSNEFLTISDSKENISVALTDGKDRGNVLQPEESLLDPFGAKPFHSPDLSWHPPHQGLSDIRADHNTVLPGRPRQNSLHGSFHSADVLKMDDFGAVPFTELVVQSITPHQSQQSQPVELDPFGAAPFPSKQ
Chain of Tyrosine-protein kinase Fer (P16591 whole entry): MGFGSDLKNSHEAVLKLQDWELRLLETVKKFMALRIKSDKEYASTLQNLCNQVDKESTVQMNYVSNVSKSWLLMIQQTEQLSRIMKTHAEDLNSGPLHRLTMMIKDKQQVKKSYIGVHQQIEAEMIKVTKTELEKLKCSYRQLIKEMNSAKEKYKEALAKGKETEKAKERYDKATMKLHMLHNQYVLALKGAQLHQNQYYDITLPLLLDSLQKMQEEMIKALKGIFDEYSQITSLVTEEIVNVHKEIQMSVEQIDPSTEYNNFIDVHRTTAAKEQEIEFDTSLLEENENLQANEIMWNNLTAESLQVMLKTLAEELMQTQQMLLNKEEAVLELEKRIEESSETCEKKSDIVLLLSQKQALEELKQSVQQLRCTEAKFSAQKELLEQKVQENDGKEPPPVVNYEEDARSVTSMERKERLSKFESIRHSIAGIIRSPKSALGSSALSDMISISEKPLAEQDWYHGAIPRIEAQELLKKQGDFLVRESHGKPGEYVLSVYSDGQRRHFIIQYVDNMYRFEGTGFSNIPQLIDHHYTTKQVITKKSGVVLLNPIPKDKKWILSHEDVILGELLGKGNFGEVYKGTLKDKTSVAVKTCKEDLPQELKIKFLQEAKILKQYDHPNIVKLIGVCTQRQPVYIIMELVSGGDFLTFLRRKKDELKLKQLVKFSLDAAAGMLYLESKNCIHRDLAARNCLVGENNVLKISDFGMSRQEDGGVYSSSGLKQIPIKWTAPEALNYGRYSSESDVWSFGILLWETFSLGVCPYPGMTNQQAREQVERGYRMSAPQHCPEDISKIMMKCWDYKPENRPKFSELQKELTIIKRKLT
Chain of Serine/threonine-protein kinase N2 (Q16513 whole entry): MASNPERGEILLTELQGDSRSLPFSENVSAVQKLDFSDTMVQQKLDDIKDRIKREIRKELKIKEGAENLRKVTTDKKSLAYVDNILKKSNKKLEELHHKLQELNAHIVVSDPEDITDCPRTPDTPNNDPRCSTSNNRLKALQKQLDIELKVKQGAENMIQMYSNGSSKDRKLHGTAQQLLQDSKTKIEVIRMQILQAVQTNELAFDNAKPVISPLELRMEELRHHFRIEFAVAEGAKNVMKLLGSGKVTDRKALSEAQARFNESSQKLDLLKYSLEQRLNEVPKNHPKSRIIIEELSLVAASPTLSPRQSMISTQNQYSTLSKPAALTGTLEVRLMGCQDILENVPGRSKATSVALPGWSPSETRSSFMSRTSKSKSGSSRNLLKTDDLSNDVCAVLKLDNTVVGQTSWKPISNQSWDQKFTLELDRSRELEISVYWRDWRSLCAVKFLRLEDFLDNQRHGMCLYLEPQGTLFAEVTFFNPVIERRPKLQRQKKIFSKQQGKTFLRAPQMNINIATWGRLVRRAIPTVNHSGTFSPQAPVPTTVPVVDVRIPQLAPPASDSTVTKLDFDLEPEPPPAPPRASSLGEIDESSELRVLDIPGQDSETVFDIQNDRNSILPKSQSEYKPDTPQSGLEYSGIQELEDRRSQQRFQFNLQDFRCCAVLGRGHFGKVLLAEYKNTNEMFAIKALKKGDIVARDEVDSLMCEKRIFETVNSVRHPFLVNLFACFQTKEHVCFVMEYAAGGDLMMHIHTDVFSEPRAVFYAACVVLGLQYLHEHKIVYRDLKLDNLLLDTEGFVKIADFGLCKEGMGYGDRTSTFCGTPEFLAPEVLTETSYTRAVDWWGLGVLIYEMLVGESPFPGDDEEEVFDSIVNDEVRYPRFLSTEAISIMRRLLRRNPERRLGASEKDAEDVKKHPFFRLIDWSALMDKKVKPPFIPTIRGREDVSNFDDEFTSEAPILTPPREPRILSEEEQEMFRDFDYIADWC
Chain of U5 small nuclear ribonucleoprotein 200 kDa helicase (O75643 whole entry): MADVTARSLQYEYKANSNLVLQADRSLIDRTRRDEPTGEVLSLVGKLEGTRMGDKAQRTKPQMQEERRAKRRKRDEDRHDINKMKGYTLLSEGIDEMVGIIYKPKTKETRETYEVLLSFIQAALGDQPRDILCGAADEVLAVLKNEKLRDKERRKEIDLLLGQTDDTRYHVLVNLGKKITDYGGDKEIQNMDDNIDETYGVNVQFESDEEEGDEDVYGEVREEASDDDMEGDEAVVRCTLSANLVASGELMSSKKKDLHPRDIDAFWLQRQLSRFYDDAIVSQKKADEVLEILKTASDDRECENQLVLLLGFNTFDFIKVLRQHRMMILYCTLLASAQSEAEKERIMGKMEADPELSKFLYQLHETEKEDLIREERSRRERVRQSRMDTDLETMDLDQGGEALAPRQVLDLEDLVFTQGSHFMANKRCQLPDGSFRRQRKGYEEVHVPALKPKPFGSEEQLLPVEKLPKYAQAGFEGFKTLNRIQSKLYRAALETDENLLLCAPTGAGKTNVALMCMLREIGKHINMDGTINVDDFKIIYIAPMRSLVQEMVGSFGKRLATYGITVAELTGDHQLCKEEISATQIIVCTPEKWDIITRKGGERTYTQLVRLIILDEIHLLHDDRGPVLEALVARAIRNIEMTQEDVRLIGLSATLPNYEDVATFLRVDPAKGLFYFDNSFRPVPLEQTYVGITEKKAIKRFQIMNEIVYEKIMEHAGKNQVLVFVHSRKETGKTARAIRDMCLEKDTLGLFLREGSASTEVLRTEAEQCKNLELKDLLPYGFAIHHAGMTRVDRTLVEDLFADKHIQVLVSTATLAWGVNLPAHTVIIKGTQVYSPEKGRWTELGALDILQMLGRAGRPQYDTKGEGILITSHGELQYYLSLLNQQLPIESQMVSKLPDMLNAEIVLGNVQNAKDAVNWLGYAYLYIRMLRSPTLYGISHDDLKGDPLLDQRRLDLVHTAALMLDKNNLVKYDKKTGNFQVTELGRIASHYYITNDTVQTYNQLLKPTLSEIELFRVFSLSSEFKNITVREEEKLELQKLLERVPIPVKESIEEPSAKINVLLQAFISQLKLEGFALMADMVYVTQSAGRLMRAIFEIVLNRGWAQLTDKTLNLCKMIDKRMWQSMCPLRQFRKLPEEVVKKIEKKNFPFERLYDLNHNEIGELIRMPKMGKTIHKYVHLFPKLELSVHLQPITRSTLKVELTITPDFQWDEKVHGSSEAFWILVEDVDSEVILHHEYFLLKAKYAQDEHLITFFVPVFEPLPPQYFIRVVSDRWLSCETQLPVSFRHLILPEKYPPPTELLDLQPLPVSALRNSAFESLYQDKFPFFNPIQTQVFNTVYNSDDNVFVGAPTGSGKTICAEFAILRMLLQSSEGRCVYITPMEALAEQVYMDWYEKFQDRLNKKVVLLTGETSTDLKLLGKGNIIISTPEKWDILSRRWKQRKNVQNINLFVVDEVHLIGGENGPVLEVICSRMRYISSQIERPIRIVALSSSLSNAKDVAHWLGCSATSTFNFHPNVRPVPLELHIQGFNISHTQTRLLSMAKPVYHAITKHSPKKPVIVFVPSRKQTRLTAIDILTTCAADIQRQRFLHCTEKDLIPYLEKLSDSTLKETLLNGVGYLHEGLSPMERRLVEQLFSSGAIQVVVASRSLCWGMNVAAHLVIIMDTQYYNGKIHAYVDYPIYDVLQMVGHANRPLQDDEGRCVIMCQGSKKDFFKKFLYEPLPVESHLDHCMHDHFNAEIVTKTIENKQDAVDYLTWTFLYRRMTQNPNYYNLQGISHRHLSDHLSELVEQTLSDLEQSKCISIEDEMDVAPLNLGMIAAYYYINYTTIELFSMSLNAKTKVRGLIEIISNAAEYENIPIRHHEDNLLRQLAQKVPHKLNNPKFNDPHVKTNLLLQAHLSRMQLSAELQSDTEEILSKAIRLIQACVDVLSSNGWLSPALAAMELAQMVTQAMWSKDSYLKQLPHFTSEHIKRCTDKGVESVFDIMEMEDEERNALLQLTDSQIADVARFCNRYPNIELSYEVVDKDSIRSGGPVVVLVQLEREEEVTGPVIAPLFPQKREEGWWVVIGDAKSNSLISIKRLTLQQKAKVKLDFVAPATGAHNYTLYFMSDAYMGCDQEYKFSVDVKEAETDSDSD

Regarding `Cc1csc(-c2nnc(Nc3ccc(Oc4ncccc4-c4ccnc(N)n4)cc3)c3ccccc23)c1` [AMG-900], the Kd in experiment [1], in experiment [2], in experiment [3], in [4], in [5] and in experiment [6] was > 30 µM (inactive) in each case. The Kd in experiment [7], in experiment [8], in [9] and in experiment [10] was > 30 µM (inactive) each time.
As for `C=CC(=O)Nc1cc2c(Nc3ccc(F)c(Cl)c3)ncnc2cc1C#CC(C)(C)N1CCN(C)CC1` [AV-412 FREE BASE], the Kd in experiment [1], in experiment [2], in [3], in experiment [4], in experiment [5] and in experiment [6] was > 30 µM (inactive) in each case. Further, the Kd in [7], in [8], in experiment [9] and in experiment [10] was > 30 µM (inactive) in each case.
Consider `COc1cc([C@@H]2c3cc4c(cc3[C@H](O)[C@H]3COC(=O)[C@@H]23)OCO4)cc(OC)c1OC` [AXL-1717], for which the Kd in [1], in [2], in experiment [3], in experiment [4], in experiment [5] and in experiment [6] was > 30 µM (inactive) in each case. The Kd in [7], in experiment [8], in [9] and in [10] was > 30 µM (inactive) throughout.
Turning to `Cc1cc(C(=O)NOCCO)c(Nc2ccc(I)cc2F)n(C)c1=O` [AZD-8330], the Kd in experiment [1], in experiment [2], in experiment [3], in experiment [4], in experiment [5] and in experiment [6] was > 30 µM (inactive) each time. In addition, the Kd in experiment [7], in [8], in experiment [9] and in experiment [10] was > 30 µM (inactive) in each case.
`Cn1cnc2c(F)c(Nc3ccc(Br)cc3F)c(C(=O)NOCCO)cc21` [BINIMETINIB]: the Kd in experiment [1], in experiment [2], in [3], in experiment [4], in experiment [5] and in [6] was > 30 µM (inactive) in each case. Moreover, the Kd in experiment [7], in [8], in experiment [9] and in experiment [10] was > 30 µM (inactive) in each case.
Take `CCn1c(C(=O)N(C2CC2)C2CC2)cc2c3c(ncn3C)c(Nc3cc(C)n(C)n3)nc21` [BMS-911543]: the Kd in experiment [1], in [2], in experiment [3], in experiment [4], in [5] and in experiment [6] was > 30 µM (inactive) in each case. Moreover, the Kd in [7], in experiment [8], in [9] and in experiment [10] was > 30 µM (inactive) each time.
Consider `COc1cc2ncnc(Oc3cccc(NC(=O)Nc4cc(C(C)(C)C(F)(F)F)on4)c3)c2cc1OC` [CEP-32496], for which the Kd was > 30 µM (inactive) in experiment [1]; > 30 µM (inactive) in experiment [2]; > 30 µM (inactive) in [3]; > 30 µM (inactive) in [4]; > 30 µM (inactive) in experiment [5]; 0.98 µM (active) in [6]. Further, the Kd is > 30 µM (inactive) in experiment [7], 0.771 µM (active) in experiment [8], > 30 µM (inactive) in [9] and > 30 µM (inactive) in [10].
Take `Cc1cc(Nc2ncc(Cl)c(Nc3ccccc3S(=O)(=O)C(C)C)n2)c(OC(C)C)cc1C1CCNCC1` [CERITINIB]: the Kd in experiment [1] is > 30 µM (inactive); in experiment [2] it was > 30 µM (inactive); in experiment [3] it was > 30 µM (inactive); in experiment [4], > 30 µM (inactive); in experiment [5], > 30 µM (inactive); in experiment [6], 0.214 µM (active). Further, the Kd in [7], in experiment [8], in experiment [9] and in [10] was > 30 µM (inactive) each time.
For the compound `COc1c(OCCCN2CCOCC2)ccc2c1N=C(NC(=O)c1cnc(N)nc1)N1CCN=C21` [COPANLISIB], the Kd in experiment [1], in [2], in experiment [3], in [4], in experiment [5] and in [6] was > 30 µM (inactive) in each case. The Kd in [7], in experiment [8], in experiment [9] and in experiment [10] was > 30 µM (inactive) in each case.
`COCC(=O)NC/C=C/c1ccc2ncnc(Nc3ccc(Oc4ccc(C)nc4)c(C)c3)c2c1` [CP-724714]: the Kd in experiment [1], in experiment [2], in experiment [3], in experiment [4], in experiment [5] and in [6] was > 30 µM (inactive) throughout. The Kd in experiment [7], in experiment [8], in [9] and in experiment [10] was > 30 µM (inactive) each time.
